Test systems include NCI-H23; HOP-62; NCI-H460; Malme-3M; UO-31; A498; CAKI-1; SK-MEL-5; HT-29; SNB-19; EKVX; NCI-H522; COLO 205; CCRF-CEM; ACHN; RPMI-8226; SF-539; SW-620; OVCAR-4; OVCAR-5.
Common to all, as to assay: NCI anticancer screen, dose series, 48 h

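Where inhibition never reached the appropriate level, the endpoint shown equals the highest concentration tested. Otherwise, values were interpolated linearly from a five-concentration, 48-hour dose response in 96-well plates. GI50 marks 50% less growth.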 Active and inactive are the calls of the source. Rule as the data show it: active = GI50 up to about 1.1 µM and inactive = higher.

For the compound `CCOC(=O)C(=CNC(Cc1c[nH]c2ccccc12)C(=O)OC)C(=O)OCC` (stereo unspecified), the GI50 was > 100 µM (inactive) with NCI-H23; < 0.01 µM (active) with HOP-62; 44.7 µM (inactive) with NCI-H460; > 100 µM (inactive) with Malme-3M; 74.6 µM (inactive) with UO-31; > 100 µM (inactive) with A498. The GI50 was > 100 µM (inactive) with CAKI-1; 86.3 µM (inactive) in the assay with SK-MEL-5; > 100 µM (inactive) in the assay on HT-29; > 100 µM (inactive) in the assay on SNB-19; > 100 µM (inactive) in the assay on EKVX; > 100 µM (inactive) in the assay with NCI-H522. Besides, the GI50 in the assay with COLO 205, with CCRF-CEM, in the assay with ACHN, with RPMI-8226, with SF-539 and with SW-620 was > 100 µM (inactive) each time.
On to `O=c1[nH]nc(NCc2ccccc2)c2nnn(Cc3ccccc3)c12`, for which the GI50 in the assay on NCI-H23, with HOP-62, in the assay with NCI-H460, in the assay on Malme-3M, in the assay with OVCAR-4 and with UO-31 was > 100 µM (inactive) in each case. For the same compound, the GI50 in the assay on OVCAR-5, in the assay with CAKI-1, with SK-MEL-5, with HT-29, in the assay with SNB-19 and in the assay with EKVX was > 100 µM (inactive) throughout. Also, the GI50 in the assay on COLO 205, in the assay with CCRF-CEM, with ACHN and in the assay with RPMI-8226 was > 100 µM (inactive) throughout.
For `C#CCOc1c(C(=O)OCC)c(=O)n(C)c2ccccc12`, the GI50 is > 100 µM (inactive) with NCI-H23; < 0.01 µM (active) with HOP-62; > 100 µM (inactive) with NCI-H460; > 100 µM (inactive) in the assay on Malme-3M; > 100 µM (inactive) in the assay on UO-31; > 100 µM (inactive) with A498. The GI50 with CAKI-1, in the assay on SK-MEL-5, with HT-29, in the assay with SNB-19, in the assay with EKVX and with NCI-H522 was > 100 µM (inactive) throughout. The GI50 in the assay on COLO 205, with CCRF-CEM, with ACHN, with RPMI-8226, in the assay with SF-539 and in the assay with SW-620 was > 100 µM (inactive) in each case.
For the compound `NC(CCOCCP(=O)(O)O)C(=O)O` (stereo unspecified), the GI50 with NCI-H23, with NCI-H460, with OVCAR-4, in the assay on UO-31, in the assay on OVCAR-5 and in the assay on CAKI-1 was > 100 µM (inactive) throughout. Besides, the GI50 in the assay on SK-MEL-5, in the assay on HT-29, with SNB-19, in the assay on EKVX, in the assay with NCI-H522 and in the assay with COLO 205 was > 100 µM (inactive) in each case. Moreover, the GI50 in the assay with CCRF-CEM, in the assay on ACHN, with RPMI-8226, in the assay on SF-539 and in the assay on SW-620 was > 100 µM (inactive) throughout.
For the compound `CCCOc1nc(N)c2cnn(C3CCCCO3)c2n1` (stereo unspecified), the GI50 with NCI-H23, in the assay on HOP-62, with NCI-H460, in the assay with Malme-3M, in the assay with OVCAR-4 and in the assay with UO-31 was > 100 µM (inactive) throughout. Also, the GI50 in the assay on OVCAR-5, in the assay on CAKI-1, in the assay on SK-MEL-5, in the assay on HT-29, in the assay with SNB-19 and in the assay with EKVX was > 100 µM (inactive) each time. Besides, the GI50 in the assay with NCI-H522, in the assay on COLO 205, in the assay on CCRF-CEM, in the assay with ACHN, in the assay on RPMI-8226 and with SF-539 was > 100 µM (inactive) throughout. For the same compound, in the assay with SW-620, the GI50 was > 100 µM (inactive).
`Cc1n[nH]c(N)c1C(N)=O`: the GI50 with NCI-H23, in the assay on Malme-3M, in the assay on OVCAR-4, with UO-31, with OVCAR-5 and in the assay with A498 was > 100 µM (inactive) in each case. For the same compound, the GI50 in the assay with CAKI-1, with SK-MEL-5, in the assay on HT-29, with SNB-19, in the assay with EKVX and in the assay on NCI-H522 was > 100 µM (inactive) throughout. The GI50 in the assay on COLO 205, with CCRF-CEM, with ACHN, in the assay on RPMI-8226, with SF-539 and with SW-620 was > 100 µM (inactive) each time.
As to `CCOC(=O)/C(=C\NC#N)c1nc2ccccc2[nH]1`, the GI50 is > 100 µM (inactive) in the assay on NCI-H23; > 100 µM (inactive) in the assay on HOP-62; 60.5 µM (inactive) in the assay on NCI-H460; > 100 µM (inactive) in the assay on Malme-3M; > 100 µM (inactive) in the assay on OVCAR-4; 1.28 µM (inactive) in the assay with UO-31. In addition, the GI50 with OVCAR-5 is > 100 µM (inactive); with A498, > 100 µM (inactive); in the assay on CAKI-1 it was > 100 µM (inactive); with SK-MEL-5 it was 65.2 µM (inactive); in the assay on HT-29 it was > 100 µM (inactive); in the assay with SNB-19 it was > 100 µM (inactive). Also, the GI50 with EKVX is > 100 µM (inactive); with NCI-H522, 68.5 µM (inactive); with COLO 205 it was > 100 µM (inactive); in the assay on ACHN it was 30.2 µM (inactive); in the assay with RPMI-8226, 78.5 µM (inactive); in the assay on SF-539, > 100 µM (inactive). Moreover, in the assay on SW-620, the GI50 is > 100 µM (inactive).
Take `O=C1NC(=O)C2(CCc3ccc(N(CCCl)CCCl)cc32)N1` (stereo unspecified): the GI50 is 6.5 µM (inactive) in the assay on NCI-H23; 9.91 µM (inactive) with HOP-62; 3.98 µM (inactive) with NCI-H460; 19.8 µM (inactive) in the assay with OVCAR-4; 11 µM (inactive) in the assay on UO-31; 13.2 µM (inactive) in the assay with OVCAR-5. In addition, the GI50 in the assay on A498 is 16.9 µM (inactive); in the assay on CAKI-1, 3.56 µM (inactive); in the assay on SK-MEL-5, 13.5 µM (inactive); in the assay on HT-29 it was 16.4 µM (inactive); in the assay with SNB-19, 3.37 µM (inactive); in the assay on EKVX, 3.15 µM (inactive). For the same compound, the GI50 was 5.26 µM (inactive) in the assay with NCI-H522; 12.3 µM (inactive) in the assay with COLO 205; 1.41 µM (inactive) in the assay with CCRF-CEM; 19.7 µM (inactive) in the assay on RPMI-8226; 5.27 µM (inactive) in the assay with SF-539; 18.2 µM (inactive) with SW-620.
As for `C[Si](C)(OCCS(=O)(=O)O)C1(Cc2cccc3ccccc23)S(=O)(=O)OCCOS1(=O)=O`, the GI50 with NCI-H23 was 27.8 µM (inactive); with HOP-62, 19.6 µM (inactive); in the assay on NCI-H460 it was 21.1 µM (inactive); with OVCAR-4 it was 20.7 µM (inactive); in the assay with UO-31, 17.9 µM (inactive); in the assay with OVCAR-5, 18.7 µM (inactive). In addition, the GI50 with A498 was 15.9 µM (inactive); with CAKI-1, 17.5 µM (inactive); in the assay with SK-MEL-5 it was 17.3 µM (inactive); with SNB-19, 19.1 µM (inactive); in the assay with EKVX it was 17.7 µM (inactive); in the assay on NCI-H522, 13.7 µM (inactive). The GI50 with COLO 205 was 12.3 µM (inactive); in the assay with CCRF-CEM, 18.3 µM (inactive); with ACHN it was 18.1 µM (inactive); in the assay on RPMI-8226 it was 18.4 µM (inactive); in the assay on SF-539, 18.6 µM (inactive); in the assay with SW-620, 16.3 µM (inactive).
With `O=S(=O)(O)c1ccc(-c2c3nc(c(-c4ccc(S(=O)(=O)O)cc4)c4ccc([nH]4)c(-c4ccc(S(=O)(=O)O)cc4)c4nc(c(-c5ccc(S(=O)(=O)O)cc5)c5ccc2[nH]5)C=C4)C=C3)cc1`, the GI50 was 64.4 µM (inactive) with NCI-H23; > 100 µM (inactive) with HOP-62; 57.5 µM (inactive) with NCI-H460; 32.5 µM (inactive) with Malme-3M; 29 µM (inactive) in the assay on OVCAR-4; 37.4 µM (inactive) with UO-31. Further, the GI50 in the assay on OVCAR-5 was 53.5 µM (inactive); in the assay with A498, > 100 µM (inactive); in the assay with CAKI-1, 28.3 µM (inactive); in the assay on SK-MEL-5, 51.2 µM (inactive); in the assay on HT-29, 49.8 µM (inactive); with SNB-19, 65.9 µM (inactive). Also, the GI50 with NCI-H522 is 47.3 µM (inactive); with COLO 205 it was 42 µM (inactive); in the assay on CCRF-CEM, 23 µM (inactive); in the assay with ACHN it was 45.7 µM (inactive); with RPMI-8226, 52.8 µM (inactive); with SF-539, > 100 µM (inactive). Moreover, the GI50 with SW-620 was 97.5 µM (inactive).
For `OC[C@H]1NC[C@@H](O)[C@@H](O)[C@H]1O`, the GI50 in the assay with NCI-H23, in the assay on HOP-62, in the assay on NCI-H460, with Malme-3M, in the assay on OVCAR-4 and in the assay on UO-31 was > 100 µM (inactive) in each case. Also, the GI50 in the assay on OVCAR-5, in the assay with A498, with CAKI-1, in the assay with SK-MEL-5, in the assay on HT-29 and in the assay on SNB-19 was > 100 µM (inactive) in each case. In addition, the GI50 in the assay with COLO 205, in the assay with CCRF-CEM, in the assay with RPMI-8226 and with SW-620 was > 100 µM (inactive) in each case.

The values above are taken from ChEMBL document CHEMBL1201862, “PubChem BioAssay data set” (2004).
